Results taken from patent publication US9676704B2, “Pesticidal compositions and processes related thereto” (Dow AgroSciences LLC, priority 2014, dated 2017).
Like-named read-outs stand apart in the source and are kept apart here.

Key:
Beet Armyworm (BAW) = experiment: Bioassays on BAW, 128-well diet tray assay; assay type: in vivo; conditions: Spodoptera exigua; for mortality at 50 µg/cm2: 168 h, read-out: BAW % Control (or Mortality) rating; for mortality at 0.05 µg/cm2: 0.05 μg/cm^2; for mortality at 0.05 µg/cm2 / mortality at 0.5 µg/cm2 / mortality at 5 µg/cm2: read-out: BAW Percent control (or mortality); for mortality at 0.5 µg/cm2: 0.5 μg/cm^2; for mortality at 5 µg/cm2: 5 μg/cm^2
Summary of the method: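 Test compound was applied at 50 μg/cm^2 in 90:10 acetone-water to the artificial diet surface and dried, with eight wells per compound. One to five second-instar beet armyworm larvae were placed per well and held at 25 °C, 14:10 light-dark, for five to seven days. Percent mortality was averaged over the wells.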

Cabbage Looper (CL) = experiment: Bioassays on CL, 128-well diet tray assay; assay type: in vivo; conditions: Trichoplusia ni; for mortality at 50 µg/cm2: 168 h, read-out: CL % Control (or Mortality) rating; for mortality at 0.05 µg/cm2: 0.05 μg/cm^2; for mortality at 0.05 µg/cm2 / mortality at 0.5 µg/cm2 / mortality at 5 µg/cm2: read-out: CL Percent control (or mortality); for mortality at 0.5 µg/cm2: 0.5 μg/cm^2; for mortality at 5 µg/cm2: 5 μg/cm^2
Summary of the method: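 Second-instar larvae, one to five per well, were placed on artificial diet treated with 50 μg/cm^2 compound (in 90:10 acetone-water) and dried, with eight wells per compound. Trays were held at 25° C, 14:10 light-dark, for five to seven days. Percent mortality was scored per well and averaged.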

Green Peach Aphid (GPA) = experiment: Bioassays on Green Peach Aphid, cabbage seedling foliar spray; assay type: in vivo; conditions: Myzus persicae, 72 h, read-out: GPA % Control (or Mortality) rating
Protocol: Cabbage seedlings grown in 3-inch pots, with 2-3 small (3-5 cm) true leaves, were used as test substrate. The seedlings were infested with 20-50 GPA (wingless adult and nymph stages) one day prior to chemical application. Four pots with individual seedlings were used for each treatment. Test compounds (2 mg) were dissolved in 2 mL of acetone/MeOH (1:1) solvent, forming stock solutions of 1000 ppm test compound. The stock solutions were diluted 5× with 0.025% Tween 20 in water to obtain the solution at 200 ppm test compound. A hand-held aspirator-type sprayer was used for spraying a solution to both sides of […] leaves until runoff. Reference plants (solvent check) were sprayed with the diluent only containing 20% by volume of acetone/MeOH (1:1) solvent. Treated plants were held in a holding room for three days at approximately 25° C. and ambient relative humidity (RH) prior to grading. Evaluation was conducted by counting the number of live aphids per plant under a microscope. Percent Control was measured by using Abbott's correction formula (W. S. Abbott, “A Method of Computing the Effectiveness of an Insecticide” J. Econ. Entomol. 18 (1925), pp. 265-267) as follows. Corrected % Control=100*(X−Y)/X where X=No. of live aphids on solvent check plants and Y=No. of live aphids on treated plants. The results are indicated in the table entitled “Table ABC: Assay Results (F)” and “Table ABCD: Assay Results (C)” (See Table Section).

[1] = tested on: Yellow Fever Mosquito (YFM); assay type: in vivo, Aedes aegypti; conditions: 15 μL of diluted 4000 ppm master solution per well, about 1 day-old larvae, 3 days
Protocol: Master plates containing 400 μg of a molecule dissolved in 100 μL of dimethyl sulfoxide (DMSO) (equivalent to a 4000 ppm solution) are used. A master plate of assembled molecules contains 15 μL per well. To this plate, 135 μL of a 90:10 water:acetone mixture is added to each well. A robot (Biomek® NXP Laboratory Automation Workstation) is programmed to dispense 15 μL aspirations from the master plate into an empty 96-well shallow plate (“daughter” plate). There are 6 reps (“daughter” plates) created per master. The created daughter plates are then immediately infested with YFM larvae. The day before plates are to be treated, mosquito eggs are placed in Millipore water containing liver powder to begin hatching (4 g. into 400 mL). After the daughter plates are created using the robot, they are infested with 220 μL of the liver powder/larval mosquito mixture (about 1 day-old larvae). After plates are infested with mosquito larvae, a non-evaporative lid is used to cover the plate to reduce drying. Plates are held at room temperature for 3 days prior to grading. After 3 days, each well is observed and scored based on mortality. The results are indicated in the table entitled “Table ABC: Assay Results (F)” and “Table ABCD: Assay Results (C)” (See Table Section). Pesticidally Acceptable Acid Addition Salts, Salt Derivatives, Solvates, Ester Derivatives, Polymorphs, Isotopes and Radionuclides

[2] = 50 μg/cm^2 on artificial diet, second instar larvae, five to seven days, 25° C.
[3] = 200 ppm foliar spray on cabbage seedlings, three days, Abbott corrected % control

Row | Compound | mortality at 50 µg/cm2 (Beet Armyworm (BAW)) | mortality at 50 µg/cm2 (Cabbage Looper (CL)) | mortality at 200 ppm (Green Peach Aphid (GPA); foliar) | YFM % Control (or Mortality) rating [1] | mortality at 50 µg/cm2 (Beet Armyworm (BAW); [2]) | mortality at 0.05 µg/cm2 (Beet Armyworm (BAW)) | mortality at 0.5 µg/cm2 (Beet Armyworm (BAW)) | mortality at 5 µg/cm2 (Beet Armyworm (BAW)) | mortality at 50 µg/cm2 (Cabbage Looper (CL); [2]) | mortality at 0.05 µg/cm2 (Cabbage Looper (CL)) | mortality at 0.5 µg/cm2 (Cabbage Looper (CL)) | mortality at 5 µg/cm2 (Cabbage Looper (CL)) | mortality at 200 ppm (Green Peach Aphid (GPA); [3])
1 | CN(CCNC(=O)c1ccc(/C=C/C(c2cc(Cl)c(Cl)c(Cl)c2)C(F)(F)F)cc1C(F)(F)F)C(=O)OC(C)(C)C (centres unmarked) [Compound C113, (E)-tert-butyl methyl(2-(4-(4,4,4-trifluoro-3-(3,4,5-trichlorophenyl)but-1-en-1-yl)-2-(trifluoromethyl)benzamido)ethyl)carbamate] | 50 to 100% | 50 to 100% | 0% | A (80-100) |  |  |  |  |  |  |  |  | 
2 | C[C@H](NC(=O)CC(F)(F)F)NC(=O)c1ccc(/C=C/C(c2cc(Cl)c(Cl)c(Cl)c2)C(F)(F)F)cc1C(F)(F)F (stereo partly drawn) [Compound F2, 4-((E)-4,4,4-trifluoro-3-(3,4,5-trichlorophenyl)but-1-en-1-yl)-2-(trifluoromethyl)-N—((R)-1-(3,3,3-trifluoropropanamido)ethyl)benzamide] |  |  |  | A (80-100) | 50 to 100% | 100% | 100% | 100% | 50 to 100% | 100% | 100% | 100% | 0%
3 | C[C@H](NC(=O)CC(F)(F)F)NC(=O)c1ccc(/C=C/C(c2cc(Cl)c(Cl)c(Cl)c2)C(F)(F)F)cc1Br (some centres unmarked) [Compound P24] |  |  |  | D (No activity noticed in this bioassay) | 50 to 100% | 0% | 7% | 87% | 50 to 100% | 6% | 19% | 100% | 
4 | C[C@H](NC(=O)CCC(F)(F)F)NC(=O)c1ccc(/C=C/C(c2cc(Cl)c(Cl)c(Cl)c2)C(F)(F)F)cc1Br (stereo partly drawn) [Compound P27, 2-Bromo-4-((E)-4,4,4-trifluoro-3-(3,4,5-trichlorophenyl)but-1-en-1-yl)-N—((R)-1-(4,4,4-trifluorobutanamido)ethyl)benzamide] |  |  |  | B (More than 0-Less than 80) | 50 to 100% | 0% | 0% | 7% | 50 to 100% | 0% | 7% | 100% | 
5 | C[C@@H](NC(=O)c1ccc(/C=C/C(c2cc(Cl)c(Cl)c(Cl)c2)C(F)(F)F)cc1C(F)(F)F)NC(=O)C(C)(C)C(F)(F)F (stereo partly drawn) [Compound P33, N—((S)-1-(3,3,3-Trifluoro-2,2-dimethylpropanamido)ethyl)-4-((E)-4,4,4-trifluoro-3-(3,4,5-trichlorophenyl)but-1-en-1-yl)-2-(trifluoromethyl)benzamide] |  |  |  | A (80-100) | 50 to 100% |  |  |  | 50 to 100% |  |  |  | 
6 | C[C@H](NC(=O)C[S+](C)[O-])NC(=O)c1ccc(/C=C/C(c2cc(Cl)c(Cl)c(Cl)c2)C(F)(F)F)cc1C(F)(F)F (stereo partly drawn) [Compound P36, N-((1S)-1-(2-(Methylsulfinyl)acetamido)ethyl)-4-((E)-4,4,4-trifluoro-3-(3,4,5-trichlorophenyl)but-1-en-1-yl)-2-(trifluoromethyl)benzamide] |  |  |  |  | 50 to 100% |  |  |  | 50 to 100% |  |  |  | 0%
7 | C[C@H](NC(=O)CC[S+](C)[O-])NC(=O)c1ccc(/C=C/C(c2cc(Cl)c(Cl)c(Cl)c2)C(F)(F)F)cc1C(F)(F)F (stereo partly drawn) [Compound P49, N-((1R)-1-(3-(methylsulfinyl)propanamido)ethyl)-4-((E)-4,4,4-trifluoro-3-(3,4,5-trichlorophenyl)but-1-en-1-yl)-2-(trifluoromethyl)benzamide] |  |  |  |  | 50 to 100% |  |  |  | 50 to 100% |  |  |  | 0 to 80%
